In US20080280974A1, “Spiro compounds for treatment of inflammatory disorders” (priority 2007, published 2008):

How the values were obtained:
[1] = tested on: IL-6 secreted by human pulmonary artery endothelial cells (HPAEC); test: In vitro IL-6 assay: TNF-alpha-stimulated IL-6 secretion by HPAEC, ELISA; type: cell-based; details: Endothelial cell, 10 microM compound, 20 hrs preincubation, then 2 ng/ml TNF-alpha for 4 hrs
Experimental: (§1) In Vitro IL-6 and IL-8 Assays
(§2) Compounds at dosing concentrations (with 0.2% DMSO vehicle) were incubated in EGM2MV cell media at 37° C. for overnight, added to 96-well plates seeded with confluent human pulmonary artery endothelial cells (HPAEC) for 20 hrs at 37° C., and then replaced with fresh dosing media containing 2 ng/ml tumor necrosis factor alpha for additional 4 hrs at 37° C. Afterwards, media was removed and used in ELISA assay to quantify the amount of IL-6 and IL-8 secreted by the cells using R&D Systems Duoset ELISA kits.

[2] = tested on: IL-8 secreted by human pulmonary artery endothelial cells (HPAEC); test: In vitro IL-8 assay: TNF-alpha-stimulated IL-8 secretion by HPAEC, ELISA; type: cell-based; details: Endothelial cell, 10 microM compound, 20 hrs preincubation, then 2 ng/ml TNF-alpha for 4 hrs
Experimental: as §1, §2

[3] = tested on: Balb/CJ mice, ovalbumin-sensitized and challenged; test: Mouse model of asthma: methacholine-induced airway reactivity (Penh) in ovalbumin-sensitized mice; type: in vivo; details: po, 768 h, 50 mg/kg p.o., days 26-32, % inhibition of the PenH vs McH dose AUC compared with vehicle control, day 32, read-out: Reduction of Penh AUC at 50 mg/kg p.o.
Experimental: Protocol for Testing Compounds in a Mouse Model of Asthma
Male 5-6 week old Balb/CJ mice were obtained from Jackson Laboratories (Bar Harbor, Me.). All experimental animals were used in accordance to Institutional Animal Care and Use Committee of AtheroGenics, Inc. Mice were sensitized by administering an intraperitoneal injection of 20 μg of ovalbumin (Calbiochem, La Jolla, Calif.) adsorbed in 2 mg of alum (Imject Alum; Pierce, Rockford, Ill.) on day 0 and 14. A group of mice received saline and served as negative control animals. The mice were challenged by aerosol exposure to ovalbumin (1% [wt/vol]) for 25 minutes on 3 consecutive days (days 28, 29, and 30) in a plexiglas exposure chamber coupled to an Aeroneb nebulizer (Buxco Electronics, Wilmington, N.C.). Experimental compounds were dissolved in Glycofurol/PEG 300/Tween (35%/55%/10%) (Sigma-aldrich; Milwaukee, Wis.). Animals were dosed orally with either test compound or vehicle (6 ml/kg dosing volume) on days 26-32 of study. Compound or vehicle was administered 2 hour before the aerosol challenge on days 28, 29, and 30 and 1 hour before airway reactivity measurement on day 32.
Methacholine-induced airway reactivity was assessed on day 32. Methacholine was administered in increasing concentrations ([…], 1.5, 3, 6, 12, 25, and 50 mg/ml) to unrestrained mice. Increases in airway resistance to Methacholine were determined as enhanced pause, (Penh) values, during and after the exposure (6-minute total analysis time). Mice were then humanely euthanized with an overdose of ketamine/xylazine and plasma samples collected for determination of drug levels. The data is presented as the % inhibition of the PenH vs McH dose AUC compared with the vehicle control.
Data analysis was conducting using the software package, JMP (SAS Institute Inc; Cary, N.C.). The Dunnett's multiple comparison test was used to compare treatment group means to the vehicle control group. P values of less than 0.05 were considered statistically significant. The data (Table 1) are presented as the % inhibition of the PenH vs McH dose AUC compared with the vehicle control.

Row | Compound | inhibition at 10 µM [1] [%] | inhibition at 10 µM [2] [%] | inhibition in vivo at 50 mg/kg [3] [%] | melting point [°C]
1 | Cc1cc2c(cc1O)C(C)(C)CC1(CC(C)(C)c3cc(OC[C@@H](O)CO)c(C)cc3O1)O2 (mixture of isomers) [Example 5, (±)-6′-Hydroxy-6-[2(S),3-dihydroxypropoxy]-4,4,4′,4′,7,7′-hexamethyl-2,2′-spirobichroman] | 3 | 11 | 20 to 40 | 218 to 220
2 | Cc1cc2c(cc1O)C(C)(C)CC1(CC(C)(C)c3cc(OCCO)c(C)cc3O1)O2 (racemic) [Example 1, (±)-6′-Hydroxy-6-(2-hydroxyethoxy)-4,4,4′,4′,7,7′-hexamethyl-2,2′-spirobichroman] | 20 | 0 | < 20 | 186 to 188
3 | Cc1cc2c(cc1O)C(C)(C)CC1(CC(C)(C)c3cc(OCC(=O)O)c(C)cc3O1)O2 (racemic) [Example 7, (±)-6′-(Hydroxy-4,4,4′,4′,7,7′-hexamethyl-2,2′-spirobichroman-6-yloxy)-acetic acid] | 12 | 0 | > 40 | 227 to 229
4 | Cc1cc2c(cc1O)C(C)(C)CC1(CC(C)(C)c3cc(OCCCO)c(C)cc3O1)O2 (racemic) [Example 3, (±)-6′-Hydroxy-6-(3-hydroxypropoxy)-4,4,4′,4′,7,7′-hexamethyl-2,2′-spirobichroman] | 53 | 13 | 20 to 40 | 175 to 177
5 | Cc1cc2c(cc1O)C(C)(C)CC1(CC(C)(C)c3cc(OCCCC(=O)O)c(C)cc3O1)O2 (racemic) [Example 12, 4-[(±)-(6′-Hydroxy-4,4,4′,4′,7,7′-hexamethyl-2,2′-spirobichroman-6-yloxy)-]butyric acid] | 0 | 0 | < 20 | 173 to 174
